Source: EPA's ToxRefDB 2

Key:
[1] = tested on: rat; details: Fertility (Segment I), sprague dawley, Oral, Gavage/Intubation, dose end: 7 PND
[2] = tested on: rat; details: Sub-acute repeat dose toxicity, sprague dawley, Oral, Gavage/Intubation, dose end: 1 month, group: systemic
[3] = tested on: rabbit; details: Prenatal developmental toxicity study, new zealand white, Oral, Gavage/Intubation, dose end: 19 GD
[4] = tested on: rat; details: Prenatal developmental toxicity study, sprague dawley, Oral, Gavage/Intubation, dose end: 17 GD
[5] = tested on: dog; details: Sub-acute repeat dose toxicity; beagle; Oral; Gavage/Intubation; dose end: 1 month; group: systemic; systemic / in life observation / clinical signs / external lesion(s) + systemic / in life observation / clinical signs / reactivity to …
[6] = tested on: rat; details: Prenatal developmental toxicity study, sprague dawley, Oral, Gavage/Intubation, dose end: 17 GD; remark: listed apart in the source
[7] = tested on: mouse; details: Combined chronic toxicity/carcinogenicity, b6c3f1, Oral, Feed, dose end: 2 year, group: systemic
[8] = tested on: rat; details: Combined chronic toxicity/carcinogenicity, sprague dawley, Oral, Feed, dose end: 2 year, group: systemic
[9] = tested on: rabbit; details: Prenatal developmental toxicity study, new zealand white, Oral, Gavage/Intubation, dose end: 19 GD; remark: listed apart in the source
[10] = tested on: rabbit; details: Prenatal developmental toxicity study, new zealand white, Oral, Gavage/Intubation, dose end: 19 GD; remark: listed apart in the source
[11] = tested on: rat; details: Multigenerational reproductive toxicity study, sprague dawley, Oral, [Not Specified], dose end: 2 generation
[12] = group: maternal, reproductive / reproductive performance / estrous cycle / abnormal + reproductive / reproductive performance / estrous cycle / corpora lutea…
[13] = group: parental, systemic / in life observation / body weight / body weight gain + systemic / in life observation / clinical signs / salivation + systemic / …
[14] = group: parental, systemic / in life observation / clinical signs / salivation
[15] = systemic / in life observation / body weight / body weight + systemic / in life observation / body weight / body weight gain + systemic / in…
[16] = systemic / in life observation / clinical signs / body temperature
[17] = group: developmental, systemic / in life observation / body weight / fetal weight
[18] = group: maternal, reproductive / reproductive performance / aborted / aborted + reproductive / reproductive performance / postimplantation loss / …
[19] = group: maternal, reproductive / reproductive performance / aborted / aborted + systemic / in life observation / clinical signs / body temperature + systemic…
[20] = group: maternal, systemic / in life observation / body weight / body weight gain + systemic / in life observation / clinical signs / body cold to touch + …
[21] = group: developmental, developmental / developmental malformation / bone / [other] + developmental / developmental malformation / bone / absent + developmental / …
[22] = group: maternal, reproductive / reproductive performance / postimplantation loss / postimplantation loss + reproductive / reproductive performance / …
[23] = group: maternal, systemic / in life observation / body weight / body weight gain + systemic / in life observation / food consumption / food consumption
[24] = systemic / in life observation / mortality / mortality + systemic / in life observation / body weight / body weight
[25] = systemic / pathology microscopic / liver / hyperplasia
[26] = systemic / pathology microscopic / liver / hyperplasia + systemic / in life observation / body weight / body weight + systemic / pathology …
[27] = group: developmental, developmental / developmental malformation / brain / dilated cerebral ventricle + developmental / developmental malformation / brain / …
[28] = group: maternal, systemic / in life observation / body weight / body weight + systemic / in life observation / body weight / body weight gain + reproductive…
[29] = group: developmental, developmental / developmental malformation / brain / hydrocephaly
[30] = group: maternal, reproductive / reproductive performance / postimplantation loss / postimplantation loss
[31] = group: maternal, reproductive / reproductive performance / postimplantation loss / postimplantation loss + reproductive / reproductive performance / aborted…
[32] = group: offspring, developmental / offspring survival late / viability index / viability index + systemic / in life observation / body weight / offspring (pup…
[33] = group: parental, systemic / in life observation / body weight / body weight + systemic / in life observation / body weight / body weight gain + systemic / …

SMILES: O=C(Nc1ccc2[nH]ccc2c1)c1cc2cc(F)ccc2n1Cc1cccc(F)c1
- LEL [1, 12]: 6 mg/kg/day
- LOAEL [1, 12]: 6 mg/kg/day
- NEL [1, 12]: 1 mg/kg/day
- NOAEL [1, 12]: 1 mg/kg/day
- LOAEL [1, 13]: 6 mg/kg/day
- NOAEL [1, 13]: 1 mg/kg/day
- LEL [1, 14]: 1 mg/kg/day
- NEL [1, 14]: < 1 mg/kg/day
- LOAEL [2, 15]: 100 mg/kg/day
- NOAEL [2, 15]: 2 mg/kg/day
- LEL [2, 16]: 2 mg/kg/day
- NEL [2, 16]: < 2 mg/kg/day
- LEL [3, 17]: 5 mg/kg/day
- LOAEL [3, 17]: > 900 mg/kg/day
- NEL [3, 17]: < 5 mg/kg/day
- NOAEL [3, 17]: ≥ 900 mg/kg/day
- LOAEL [3, 18]: > 900 mg/kg/day
- NOAEL [3, 18]: ≥ 900 mg/kg/day
- LEL [3, 19]: 5 mg/kg/day
- NEL [3, 19]: < 5 mg/kg/day
- LEL [4, 17]: 10 mg/kg/day
- LOAEL [4, 17]: > 400 mg/kg/day
- NEL [4, 17]: < 10 mg/kg/day
- NOAEL [4, 17]: ≥ 400 mg/kg/day
- LEL [4, 20]: 10 mg/kg/day
- LOAEL [4, 20]: > 400 mg/kg/day
- NEL [4, 20]: < 10 mg/kg/day
- NOAEL [4, 20]: ≥ 400 mg/kg/day
- LEL [5]: 0.05 mg/kg/day
- LOAEL [5]: > 1 mg/kg/day
- NEL [5]: < 0.05 mg/kg/day
- NOAEL [5]: ≥ 1 mg/kg/day
- LEL [6, 21]: 6 mg/kg/day
- LOAEL [6, 21]: 6 mg/kg/day
- NEL [6, 21]: 1 mg/kg/day
- NOAEL [6, 21]: 1 mg/kg/day
- LOAEL [6, 22]: 6 mg/kg/day
- NOAEL [6, 22]: 1 mg/kg/day
- LEL [6, 23]: 1 mg/kg/day
- NEL [6, 23]: < 1 mg/kg/day

SMILES: C1CC[CH]([Sn+]([CH]2CCCCC2)[CH]2CCCCC2)CC1.[OH-] [Cyhexatin]
- LOAEL ([7]; systemic / in life observation / mortality / mortality): 6 mg/kg/day
- LEL [7, 24]: 6 mg/kg/day
- NEL [7, 24]: 3 mg/kg/day
- NOAEL [7, 24]: 3 mg/kg/day
- LOAEL [8, 25]: 1 mg/kg/day
- NOAEL [8, 25]: < 1 mg/kg/day
- LEL [8, 26]: 1 mg/kg/day
- NEL [8, 26]: < 1 mg/kg/day
- LEL [9, 27]: 0.75 mg/kg/day
- LOAEL [9, 27]: > 3 mg/kg/day
- NEL [9, 27]: < 0.75 mg/kg/day
- NOAEL [9, 27]: ≥ 3 mg/kg/day
- LOAEL ([9]; group: maternal, systemic / in life observation / body weight / body weight + systemic / in life observation / body weight / body weight gain): 3 mg/kg/day
- LEL [9, 28]: 3 mg/kg/day
- NEL [9, 28]: 0.75 mg/kg/day
- NOAEL [9, 28]: 0.75 mg/kg/day
- LEL [10, 29]: 3 mg/kg/day
- LOAEL [10, 29]: > 3 mg/kg/day
- NEL [10, 29]: 1 mg/kg/day
- NOAEL [10, 29]: ≥ 3 mg/kg/day
- LEL [10, 30]: 1 mg/kg/day
- LOAEL [10, 30]: 1 mg/kg/day
- NEL [10, 31]: 0.5 mg/kg/day
- NOAEL [10, 31]: 0.5 mg/kg/day
- LEL [11, 32]: 6 mg/kg/day
- LOAEL [11, 32]: > 6 mg/kg/day
- NEL [11, 32]: 0.5 mg/kg/day
- NOAEL [11, 32]: ≥ 6 mg/kg/day
- LEL ([11]; group: parental, systemic / in life observation / body weight / body weight + systemic / in life observation / body weight / body weight gain): 0.5 mg/kg/day
- LOAEL [11, 33]: > 6 mg/kg/day
- NEL [11, 33]: 0.1 mg/kg/day
- NOAEL [11, 33]: ≥ 6 mg/kg/day
